Consider 4 molecules from US10196404B2, “MCL-1 inhibitors and methods of use thereof” (AstraZeneca AB, priority 2016, dated 2019).

For assay [1], the system named is NCl-H23 (non-small cell lung cancer) cells. Put plainly: Caspase Activity Assay (Caspase-Glo 3/7, 6 h treatment), NCI-H23. In kind it is cell-based. The settings on record: geometric mean of multiple measurements. The protocol:
(§1) This is a cell assay to measure the induction of apoptosis in MOLP-8 (multiple myeloma), KMS-12-BM (multiple myeloma), MV-4-11 (acute myeloid leukemia), and NCl-H23 (non-small cell lung cancer) cells after 6 h treatment. On the first day, 3000 (MOLP-8, KMS-12-BM, MV-4-11) or 1250 (NCl-H23) cells/well were seeded in 50 μL of growth media (IMDM+10% FBS+2 mM L-Glu for MV-4-11 and RPM1-1640+10% FBS+2 mM L-Glu for all other cell lines) in 384-well white microplates, and incubated overnight (37° C., 5% CO2, 80% RH). On the second day, the cells were treated with Mcl-1 inhibitors using an ECHO acoustic liquid handler (10 point half-log serial dilution, 31.5 μM top concentration, 0.3% final DMSO concentration). After 6 h incubation (37° C., 5% CO2, 80% RH), 25 μL of Caspase-Glo 3/7 reagent (Promega) was added into each well, and plates were incubated at room temperature for 30 min protected from light. Luminescence was recorded using an Infinite M200 microplate reader (Tecan) with a 100 ms integration time. EC50 values were calculated using GeneData analysis software.

Assay [2] relates to MOLP-8 (multiple myeloma) cells. Put plainly: Caspase Activity Assay (Caspase-Glo 3/7, 6 h treatment), MOLP-8. The settings on record: MOLP-8 cells, geometric mean of multiple measurements. In kind it is cell-based, human. The protocol: as §1
For assay [3], the system named is KMS-12-BM (multiple myeloma) cells. Put plainly: Caspase Activity Assay (Caspase-Glo 3/7, 6 h treatment), KMS-12-BM. The settings on record: KMS-12-BM cells, geometric mean of multiple measurements. The format is cell-based. The protocol: as §1
For assay [4], the system named is MV-4-11 (acute myeloid leukemia) cells. Put plainly: Caspase Activity Assay (Caspase-Glo 3/7, 6 h treatment), MV-4-11. The settings on record: MV-4-11 cells, geometric mean of multiple measurements. In kind it is cell-based, human. Here is the method:
as §1

Assay [5] has as its system NCl-H929 tumor. Put plainly: In vivo combination efficacy in NCI-H929 human multiple myeloma tumor model. More on the design: species or system C.B-17 SCID female mice. The settings on record: NCl-H929 tumor bearing mice; for anti-tumor activity, agent alone: Example 2 30 mg/kg every other week or bortezomib 1 mg/kg weekly. The protocol:
(§2) Example 2 was formulated in 30% 2-Hydroxypropyl-beta-cyclodextrin (HPBCD), pH 9 and dosed as intravenously (iv) in a volume of 5 ml/kg. 5×10^6 MOLP-8 tumor cells or 10^7 NCl-H929 tumor cells were injected subcutaneously in the right flank of C.B-17 SCID female mice in a volume of 0.1 mL. Tumor volumes (measured by caliper) were calculated using the formula: length (mm)×width (mm)^2[…]. For efficacy studies, mice were randomized based on tumor volumes and growth inhibition was assessed by comparison of the differences in tumor volume between control and treated groups. Dosing began when mean tumor size reached approximately 160 mm^3 for MOLP-8 and approximately 230 mm^3 for NCl-H929.

The subject of assay [6] is MV-4-11 tumor. Put plainly: In vivo efficacy in MV-4-11 human acute myeloid leukemia tumor model. Set-up: species or system C.B-17 SCID female mice. The settings on record: for mice remaining tumor free / tumor regression: MV-4-11 tumors. The protocol: as §2, with “a single intravenous” for “intravenously”, “(iv) administration” for “(iv)”, “10^6 MV-4-11” for “5×10^6 MOLP-8 tumor cells or 10^7 NCl-H929”, “mL. Tumor volumes (measured by caliper), animal body weight, and tumor conditions were recorded twice weekly for the duration of the study.” for “mL.”, “approximately” for “approximately 160 mm^3 for MOLP-8 and approximately”, “mm^3.” for “mm^3 for NCl-H929.”

The test system of assay [7] is MOLP-8 tumor. Put plainly: In vivo efficacy in MOLP-8 human multiple myeloma tumor model. More on the design: species or system C.B-17 SCID female mice. The settings on record: MOLP-8 tumor bearing mice. The protocol: as §2

As a reminder, the EC50 is the midpoint of the concentration-response curve. Read a high EC50 as lower potency in that assay.

On to `Cc1c2c(nn1C)CSCc1cc(n(C)n1)CSc1cc(c3ccccc3c1)OCCCc1c(C(=O)O)n(C)c3c-2c(Cl)ccc13` [Example 1, 17-chloro-5,13,14,22-tetramethyl-28-oxa-2,9-dithia-5,6,12,13,22-pentaazaheptacyclo[27.7.1.1^4,7.0^11,15.0^16,21.0^20,24.0^30,35]octatriaconta-1(37),4(38),6,11,14,16,18,20,23,29,31,33,35-tridecaene-23-carboxylic Acid], for which the EC50 in assay [1] worked out at 531 nM; in assay [2] (Homo sapiens, MOLP-8, 6 h) it was 44 nM; in assay [3] (Homo sapiens, KMS-12-BM, 6 h) it was 48 nM; in assay [4] (Homo sapiens, MV4-11, 6 h) it was 24 nM.
In the case of `Cc1c2c(nn1C)CSCc1cc(n(C)n1)CSc1cc(c3ccccc3c1)OCCCc1c(C(=O)O)n(C)c3c-2c(Cl)ccc13` (single isomer, unassigned) [Example 3, (Sa)-(−)-17-chloro-5,13,14,22-tetramethyl-28-oxa-2,9-dithia-5,6,12,13,22-pentaazaheptacyclo[27.7.1.1^4,7.0^11,15.0^16,21.0^20,24.0^30,35]octatriaconta-1(37),4(38),6,11,14,16,18,20,23,29,31,33,35-tridecaene-23-carboxylic Acid], the concentration for a half-maximal effect (EC50) is over 10000 nM in assay [1] (Homo sapiens, NCI-H23, 6 h); over 2300 nM in assay [2] (Homo sapiens, MOLP-8, 6 h); over 1030 nM in assay [3] (Homo sapiens, KMS-12-BM, 6 h); over 1580 nM in assay [4] (Homo sapiens, MV4-11, 6 h).
Take `CC(C)C[C@H](NC(=O)[C@H](Cc1ccccc1)NC(=O)c1cnccn1)B(O)O` [bortezomib, reference compound]: in assay [5], the “anti-tumor activity, agent alone” value is “no significant anti-tumor activity”.
As for `Cc1c2c(nn1C)CSCc1cc(n(C)n1)CSc1cc(c3ccccc3c1)OCCCc1c(C(=O)O)n(C)c3c-2c(Cl)ccc13` (atropisomer, axis not shown; (Ra)) [Example 2, (Ra)-(+)-17-chloro-5,13,14,22-tetramethyl-28-oxa-2,9-dithia-5,6,12,13,22-pentaazaheptacyclo[27.7.1.1^4,7.0^11,15.0^16,21.0^20,24.0^30,35]octatriaconta-1(37),4(38),6,11,14,16,18,20,23,29,31,33,35-tridecaene-23-carboxylic Acid], the “mice remaining tumor free” value in assay [6] (once weekly iv 30 mg/kg, 16 days after initiation of therapy) was 1 of 6; in assay [6] (single iv dose of 100 mg/kg, 16 days after therapy), 4 of the 6. Further, the tumor regression is about 73% in assay [6] (once weekly iv 30 mg/kg, at Day 6) and 100% in assay [6] (single iv dose of 100 mg/kg). Further, the “anti-tumor activity (qualitative)” value is on record as “significant anti-tumor activity” in assay [6] (mice bearing subcutaneous MV-4-11 tumors, iv) and “dose dependent anti-tumor activity” in assay [7] (iv). For the same molecule, the “tumor growth inhibition (TGI)” value in assay [7] (single iv administration at 10 mg/kg) was 52%; in assay [7] (single iv administration at 30 mg/kg), 92%. Further, the “mice with complete tumor regression” value in assay [7] (single iv administration at 60 or 100 mg/kg, measured 10 days after dosing) is 13 out of 14. Moreover, the results for the concentration for a half-maximal effect (EC50) in assay [2], in assay [3] and in assay [4] were 30 nM, 43 nM and 20 nM, respectively. Also, the “anti-tumor activity, agent alone” value in assay [5] is on record as “no significant anti-tumor activity”. Further, the “anti-tumor effect of combination” value in assay [5] (Example 2 every other week at 30 mg/kg in combination with weekly bortezomib at 1 mg/kg) is recorded as “tumor regression”.
